Measurements: patent publication US9995734B2, “Human T cell line assay for evaluating the immunologic identity of glatiramer acetate preparations” (Mylan Inc., priority 2013, dated 2018)
Values joined by “and” are separate entries in the source; they are usually repeats but may differ in a detail not shown here. Equal values may be shown once.

What was measured:
[1] = tested on: Donor 1 GMA Expanded T-Cell Lines (222-AG11, 222-AG12, 222-BA11, 222-BC11); experiment: ATP proliferation assay (CellTiter Glo), Donor 1 GMA expanded T-cell lines, incl. reactivity to non-canonical GA peptides; type: cell-based, human; settings: for Non-Canonical Peptide Non-Reactivity: 222-AG12, proliferation <2 times no antigen control; for Nonreactive T-Cell Line: Donor 1 GMA expanded lines, stimulation with the non-canonical GA peptide; for Proliferation (luminescent ATP assay), Mean: T-cell line 222-AG12, autologous B-LCL
Experimental: (§1) Proliferation was evaluated by measuring ATP content using a luminescent method (CellTiter Glo Luminescent Cell Viability Assay, Promega, Madison, Wis., cat. #G7571) or by measuring BrdU uptake by ELISA (Millipore cat. #2752), in both cases following kit instructions. A split well format was used. Cells in each well were resuspended and 65 μl transferred to the wells of each of two new U-bottom 96-well plates, to generate the replicate plates. For the initial screening, the original 96-well plate received mitomycin-treated autologous PBMC as APC plus 10 μg/mL antigen (GA). A first replicate plate received 100 μl., mitomycin-treated PBMC alone (2×10^5), and no antigen, and a second replicate plate received 100 μL mitomycin-treated PBMC plus GA at a final concentration of 10 μg/mL. Therefore, all three plates received autologous APC (PBMC) treated with mitomycin C to prevent cell division. […] The latter two plates were incubated for 3 days at 37° C., 6% CO2 before adding CellTiter Glo or BrdU and measuring signal. IL-2 was added at 10 U/mL to the original 96-well plate for expansion on Day 17. For subsequent screenings, mitomycin-treated EBV-transformed autologous B-LCL (2×10^5 to 5×10^5 cells/mL) were used as APC.
On Day 24, cells from the wells corresponding to the eight presumptive GA-specific human T-cell lines listed in Table 4 were transferred to a 24-well plate and expanded by stimulating with 10 μg/mL GMA and mitomycin-treated autologous PBMC as APC (3×10^6 per well, i.e., 1.5×10^6/mL). On Day 32 four of the eight lines, 222-BA11, 222-BC11, 222-AG11, and 222-AG12, were stimulated with 0, 1, 10 and 100 μg/mL GMA and tested in a 96-well plate for a proliferative response to GMA using an ATP assay, again using autologous PBMC as APC (2×10^5 per well, i.e., 1×10^6/mL). […] FIGS. 2A and B show the results of the ATP proliferation assay carried out using 222-AG12, 222-BC11, 222-AG11, and 222-BA11 at Day 35 (control=no antigen). FIGS. 3A-C compare the results of ATP proliferation assays carried out after stimulation with varying concentrations of GMA or Copaxone as indicated, using cell lines 222-BA11, 222-BC11, and 222-AG12.
Donor 1 GMA T-cell line 222-AG12 was assayed for proliferation following stimulation with 0, 1, 10, and 30 μg/mL each of peptides GLT 631, GAT 631, GAT 111, LT 11, GT 11, GL 14, COP, and GMA, at a T-cell concentration of 2×10^5 cells/mL, in the presence of mitomycin C-treated autologous B-LCL. Line 222-AG12 was assayed after 3 rounds of restimulation (4 total stimulations). Proliferation was measured by luminescent ATP assay.

[2] = tested on: Donor 1 COP T-Cell Lines; experiment: ATP proliferation assay (CellTiter Glo), Donor 1 COP T-cell lines, incl. reactivity to non-canonical GA peptides; type: cell-based, human; settings: for response to GMA in comparison to COP: 10 μg/mL dose; for ATP Proliferation Assay, Mean: Day 56, second assay; for ATP proliferation assay: 48 hours after stimulation; for luminescent ATP proliferation assay, mean: no antigen 5673 (Table 9); for Proliferation (luminescent ATP assay), Mean: Day 56 of culturing; for Non-Canonical Peptide Non-Reactivity: proliferation <2 times no antigen control; for Nonreactive T-Cell Line: stimulation with the non-canonical GA peptide
Experimental: as §1
COP-responsive T-cell lines were obtained from Donor 1. In the initial stimulation, isolated PBMC were plated at 1×10^5 cells per well (5×10^5 cells/mL) with 10 μg/mL Copaxone and cultured as described above. IL-2 was added to all wells on Days 4 and 7 of culture, and the wells screened for reactivity on Day 14 using a luminescent proliferation assay in split well format. The original plate was restimulated, and IL-2 added 4 days after restimulation.
T-cell line 222-2D8, generated from Donor 1 by initial stimulation with COP, was shown in at least two experiments to proliferate comparably following restimulation with GMA and COP. […] ATP levels were measured at 48 hours after stimulation. The control in the GMA series was no antigen, and the control in the COP series was MBP. The response to GMA in comparison to COP at the 10 μg/mL dose in this assay was 103.4%.
In a second ATP proliferation assay, carried out on Day 56 or culturing following stimulation with 1, 3, or 10 μg/mL of GMA or COP, the response to GMA in comparison to COP at the 10 μg/mL dose was 107.1%.
T-cell line 222-2F1, generated from Donor 222 by initial stimulation with COP, was shown in at least two experiments to proliferate comparably following restimulation with GMA and COP. […] ATP levels were measured at 48 hours after stimulation. The control in the GMA series was no antigen, and the control in the COP series was MBP. The response to GMA in comparison to COP at the 10 μg/mL dose in this assay was 85.1%.
On Day 56 of culturing, after six total rounds of stimulation, cell line 222-2F12 was assayed for proliferation in response to stimulation with GA and a series of non-canonical peptides. For the assay, 0, 3, 10, or 30 μg/mL of each of peptides GL 14, GLT 631, GAT 111, and GAT 631, COP, and GMA, were added to the T-cell lines at 1×10^5 cells/mL, in the presence of mitomycin C-treated autologous B-LCL. Proliferation was measured by luminescent ATP assay. Cell line 222-2F12 responded to GL 14 at 3 μg/mL, and not to the other non-canonical GA peptides tested. The response to GMA in comparison to COP at the 10 μg/mL dose in this assay was 99.4%.
The cultures were restimulated on days 46, 56, 67 and 75. On Day 56, cell lines 222-2D8, 222-1H12, 222-2F12, 222-2B8, 222-105, 222-2B11, and 222-2E1 again were tested for reactivity to stimulation with 1, 3, or 10 μg/mL of GMA or COP in a proliferation assay. ATP levels were measured in all seven cell lines at 48 hours (results in FIGS. 5A-G) after stimulation. The control in the GMA series was no antigen, and the control in the COP series was MBP. […]

Row | Substance | luminescent ATP proliferation assay, mean ([2]; 222-2F12, Day 56, 3 μg/mL) | luminescent ATP proliferation assay, mean ([2]; 222-2F12, Day 56, 10 μg/mL) | luminescent ATP proliferation assay, mean ([2]; 222-2F12, Day 56, 30 μg/mL) | Non-Canonical Peptide Non-Reactivity [1] | Nonreactive T-Cell Line [1] | Proliferation (luminescent ATP assay), Mean ([1]; 1 ug/mL antigen) | Proliferation (luminescent ATP assay), Mean ([1]; 10 ug/mL antigen) | Proliferation (luminescent ATP assay), Mean ([1]; 30 ug/mL antigen) | Non-Canonical Peptide Non-Reactivity ([2]; 222-2F12) | Nonreactive T-Cell Line ([2]; Donor 1 COP lines) | other results
1 | glatiramer acetate [GMA] | 232779 | 228761 | 125994 |  |  |  |  |  |  |  | proliferative response relative to control, dose comparison ([1]; 222-BA11, 222-BC11, 222-AG11, 222-AG12, Day 32, 0, 1, 10, 100 μg/mL): best proliferative response relative to control was observed in the cells stimulated with 10 μg/mL; response to GMA in comparison to COP ([2]; 222-2D8, Day 56 (Table 6)): 103.4%; response to GMA in comparison to COP ([2]; 222-2D8, second assay (Table 7)): 107.1%; ATP Proliferation Assay, Mean ([2]; 222-2D8, 1 μg/mL (Table 7)): 2078; ATP Proliferation Assay, Mean ([2]; 222-2D8, 3 μg/mL (Table 7)): 149752; ATP Proliferation Assay, Mean ([2]; 222-2D8, 10 μg/mL (Table 7)): 156417; ATP proliferation assay ([2]; 222-2D8, Day 56, 1 μg/mL (Table 6)): 4369; ATP proliferation assay ([2]; 222-2D8, Day 56, 3 μg/mL (Table 6)): 7480; ATP proliferation assay ([2]; 222-2D8, Day 56, 10 μg/mL (Table 6)): 12793; response to GMA in comparison to COP ([2]; 222-2F12 (printed 222-2F1), Day 56 (Table 8)): 85.1%; response to GMA in comparison to COP ([2]; 222-2F12, Day 56 (Table 9)): 99.4%; ATP proliferation assay ([2]; 222-2F12, Day 56, 1 μg/mL (Table 8)): 6500; ATP proliferation assay ([2]; 222-2F12, Day 56, 3 μg/mL (Table 8)): 8520; ATP proliferation assay ([2]; 222-2F12, Day 56, 10 μg/mL (Table 8)): 12382; Proliferation (luminescent ATP assay), Mean ([2]; T-cell line 222-1H12, 3 μg/mL antigen, 0 μg/mL 5974): 141486 RLU; Proliferation (luminescent ATP assay), Mean ([2]; T-cell line 222-1H12, 10 μg/mL antigen, 0 μg/mL 5974): 167193 RLU; Proliferation (luminescent ATP assay), Mean ([2]; T-cell line 222-1H12, 30 μg/mL antigen, 0 μg/mL 5974): 82376 RLU; Proliferation (luminescent ATP assay), Mean ([2]; T-cell line 222-2F12, 3 μg/mL antigen, 0 μg/mL 5673): 232779; Proliferation (luminescent ATP assay), Mean ([2]; T-cell line 222-2F12, 10 μg/mL antigen, 0 μg/mL 5673): 228761; Proliferation (luminescent ATP assay), Mean ([2]; T-cell line 222-2F12, 30 μg/mL antigen, 0 μg/mL 5673): 125994
2 | poly (Glu-Ala-Tyr; 6:3:1) [GAT 631] | 4342 | 3226 | 3071 | GAT 631 | 222-AG12 (Donor 1) | 3442 RLU | 3217 RLU | 3548 RLU | GAT 631 | 222-2F12 (Donor 1) and 222-1H12 (Donor 1) | 
3 | poly (Glu-Tyr; 1:1) [GT 11] |  |  |  | GT 11 | 222-AG12 (Donor 1) | 2650 RLU | 3285 RLU | 2231 RLU |  |  | 
4 | poly (Glu-Ala-Tyr; 1:1:1) [GAT 111] | 3914 | 3590 | 2430 | GAT 111 | 222-AG12 (Donor 1) | 3391 RLU | 2568 RLU | 2245 RLU | GAT 111 | 222-2F12 (Donor 1) and 222-1H12 (Donor 1) | 
5 | poly (Lys-Tyr; 1:1) [LT 11] |  |  |  | LT 11 | 222-AG12 (Donor 1) | 3452 RLU | 4242 RLU | 2347 RLU |  |  | 
6 | poly (Glu-Lys-Tyr; 6:3:1) [GLT 631] | 5277 | 4934 | 5217 | GLT 631 | 222-AG12 (Donor 1) | 3801 RLU | 4002 RLU | 5292 RLU | GLT 631 | 222-2F12 (Donor 1) | proliferation response to non-canonical GA peptides ([2]; 222-1H12, Day 56, 0, 3, 10, 30 μg/mL): responded; Reactive T-Cell Line ([2]; Donor 1 COP lines, at least a 50% increase in proliferation relative to a control after stimulation with the non-canonical GA peptide): 222-1H12 (Donor 1)
